Values of other authors as cited in patent US20260022280A1, “LOW VOC SOLVENT CEMENT FORMULATION WITH REDUCED TOXICITY AND RAPID CURING” (Ashirvad Pipes Pvt Ltd, priority 2022, published 2026).
Like-named read-outs stand apart in the source and are kept apart here.

Legend:
[1] = for ECHA Concern: Yes / No
Rat [2] = conditions: in vivo
[3] = solvents
[4] = total solubility parameter
Rat [5] = conditions: 4 h
Mouse = conditions: 4 h
Rat [6] = conditions: Rat male and female

Row | SMILES | Vapour Pressure (at 20° C.) | ECHA Concern [1] | other results
1 | CCOC(C)OCC [1,1 Diethoxy ethane] | 20.25 mm Hg | Yes | –
2 | CCOCCOCC [1,2 Diethoxy ethane] | 9 mm Hg | Yes | –
3 | C1COCO1 [1,3 Dioxolane] | – | – | LD50 (Rat [2]; po): 5200 mg/kg
4 | CC1CCCO1 (stereo not shown) [2-Methyl tetrahydrofuran] | 102 mm Hg | No | –
5 | CC(C)=O [ACE, Acetone] | 180 mm Hg | No | Density [3]: 0.78 g/cc; SPo (Total) [4]: 9.8 (Cal/cm^3)^1/2
6 | CC(=O)CC(C)=O [Acetylacetone] | 2.96 mm Hg | – | –
7 | O=C1CCCCC1 [CYH, Cyclohexanone] | 3.75 mm Hg | No | SPo (Total) [4]: 9.6 (Cal/cm^3)^1/2; LD50 Oral (Rat [2]): 1544 mg/kg; LD50 Dermal (Rabbit): 947 mg/kg; LD50 Inhalation (Rat [5]; Rat): 8000 ppm
8 | O=C1CCCC1 [Cyclopentanone] | 11.4 mm Hg | No | –
9 | COC1CCCC1 [Cyclopentyl Methyl Ether] | – | No | Vapour Pressure ((25° C.)): 44.92 mm Hg
10 | CCC(=O)CC [Diethyl ketone] | 15 mm Hg | No | –
11 | COC(=O)OC [Dimethyl Carbonate] | – | No | Vapour Pressure ((25° C.)): 55.5 mm Hg
12 | COC(=O)CCCCC(=O)OC [Dimethyl adipate] | 0.06 mm Hg | No | –
13 | C[S+](C)[O-] [Dimethyl sulfoxide] | 0.44 mm Hg | No | –
14 | CN(C)C=O [Dimethylformamide] | 3.67 mm Hg | – | –
15 | CCO [Ethanol] | 43.5 mm Hg | Yes | –
16 | CCOC(C)=O [Ethyl acetate] | 75 mm Hg | No | –
17 | CCC(C)=O [MEK, Methyl Ethyl Ketone] | 15 mm Hg | – | Density [3]: 0.80 g/cc; LC50 Inhalation (Mouse): 32.000 mg/m3
18 | CCCC(C)=O [MPK, Methyl Propyl Ketone] | 12 mm Hg | No | Density [3]: 0.80 g/cc; SPo (Total) [4]: 9.6 (Cal/cm^3)^1/2; LD50 Oral (Rat [2]): > 16000 mg/kg; LD50 Dermal (Rat [6]): > 6480 mg/kg
19 | CO [Methanol] | 96.75 mm Hg | – | –
20 | CCCCCC(C)=O [Methyl amyl ketone] | 1.5 mm Hg | No | –
21 | CC(=O)CCC(C)C [Methyl iso amyl ketone] | 4.5 mm Hg | Yes | –
22 | CC(=O)C(C)C [Methyl iso propyl ketone] | 41.25 mm Hg | No | –
23 | CN1CCCC1=O [N-Methyl-2-Pyrrolidone] | 0.29 mm Hg | Yes | –
24 | CCCCOC(C)=O [N-butyl acetate] | – | No | –
25 | CCN1CCCCCC1=O [N-ethyl caprolactam] | – | No | –
26 | COC(C)=O [N-methylacetate] | 173 mm Hg | Yes | –
27 | C1CCOC1 [THF, Tetrahydrofuran] | 145 mm Hg | Yes | Density [3]: 0.88 g/cc; Vapour Pressure (at 20° C., listed as Tetrahydrofuran): 144.76 mm Hg; Hazard Classification & labelling ([1]; ECHA, harmonised classification / REACH registrations): suspected to be Carcinogenic; LC50 Inhalation (Rat [5]; Rat male and female): 4 h −> 16.9 mg/l
28 | CC(=O)OC(C)(C)C [t-butyl acetate] | – | No | Vapour Pressure ((25° C.)): 47.25 mm Hg
29 | O=C1CCCO1 [γ-Butyrolactone] | 1.12 mm Hg | No | –
